Assay results published in US20240115654A1, “INTRAVENOUS ADMINISTRATION OF ENGINEERED ANTIMICROBIAL AMPHIPHILIC PEPTIDES” (priority 2021, published 2024).
Several values for one entry are separate records, joined by “and”; a condition that tells them apart may be missing. Equal entries are not always repeated. Where two headings read alike, the source gives them in different places. Peptide text beside a SMILES is read from it.

Details: for increase of AUC0-t / increase of mean AUC0-24: Cohorts 1 to 3
[1] = Cohort 4, 0.5 mg/kg IV infusion 2 hours, Max
[2] = Cohort 4, 0.5 mg/kg IV infusion 2 hours, Mean
[3] = Cohort 4, 0.5 mg/kg IV infusion 2 hours, Min
[4] = Cohort 4, 0.5 mg/kg IV, infusion 2 hours, cohort Geometric Mean
[5] = Cohort 4, 0.5 mg/kg IV, infusion 2 hours, cohort Mean
[6] = Cohort 4, 0.5 mg/kg IV, infusion 2 hours, cohort Median
[7] = Cohort 5, 1 mg/kg IV infusion 4 hours, Max
[8] = Cohort 5, 1 mg/kg IV infusion 4 hours, Min
[9] = Phase 1 subjects, 1-hr IV infusion
[10] = over the 5-fold increase in dose
[11] = single 1-hour infusion 0.05 mg/kg, Geometric Mean
[12] = single 1-hour infusion 0.05 mg/kg, Max
[13] = single 1-hour infusion 0.05 mg/kg, Mean
[14] = single 1-hour infusion 0.05 mg/kg, Median
[15] = single 1-hour infusion 0.05 mg/kg, Min
[16] = single 1-hour infusion 0.05 mg/kg, individual subjects
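Also: phase 1 study in human subjects given one IV dose of the peptide, enrolled in sequential ascending-dose cohorts and randomized to peptide or placebo.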

In the case of `CC(C)[C@H](NC(=O)[C@H](Cc1c[nH]c2ccccc12)NC(=O)[C@H](CCCNC(=N)N)NC(=O)[C@H](CCCNC(=N)N)NC(=O)[C@@H](NC(=O)[C@@H](NC(=O)[C@H](CCCNC(=N)N)NC(=O)[C@@H](NC(=O)[C@@H](NC(=O)[C@H](CCCNC(=N)N)NC(=O)[C@H](CCCNC(=N)N)NC(=O)[C@H](Cc1c[nH]c2ccccc12)NC(=O)[C@@H](NC(=O)[C@H](CCCNC(=N)N)NC(=O)[C@H](CCCNC(=N)N)NC(=O)[C@@H](NC(=O)[C@H](CCCNC(=N)N)NC(=O)[C@H](CCCNC(=N)N)NC(=O)[C@@H](NC(=O)[C@H](Cc1c[nH]c2ccccc12)NC(=O)[C@H](CCCNC(=N)N)NC(=O)[C@@H](N)CCCNC(=N)N)C(C)C)C(C)C)C(C)C)C(C)C)C(C)C)C(C)C)C(C)C)C(=O)N[C@@H](CCCNC(=N)N)C(=O)N[C@@H](CCCNC(=N)N)C(N)=O` [SEQ ID NO: 1] (H-RRWVRRVRRVWRRVVRVVRRWVRR-NH2), the AUC(0-inf) [1] is reported as 13500 ng·h/mL, the AUC(0-t) [1] is reported as 12200 ng·h/mL and the AUCextrap [1] is reported as 12.8%. It also gave a Cmax [1] of 2310 ng/mL, a t1/2 [1] of 21.1 h and an AUCextrap [2] of 8.22%. For the same compound, the CL/F [2] was 1.07 mL/min/kg, the AUCextrap (Cohort 4, 0.5 mg/kg IV infusion 2 hours, Median) was 8.81% and the AUC0-24 [3] was 3190 ng·h/mL. It also gave an AUC(0-inf) [3] of 3870 ng·h/mL, an AUC(0-t) [3] of 3440 ng·h/mL and an AUCextrap [3] of 3.65%. For the same compound, the CL/F [3] was 0.615 mL/min/kg, the Cmax [3] was 994 ng/mL and the t1/2 [3] was 11.5 h. The “Plasma Concentration by Nominal Time from Start of Infusion, Mean” value (Cohort 4, 0.5 mg/kg IV, infusion 2 hours, 0.0 h, cohort mean N 6) was 0.00 ng/mL, the “Plasma Concentration by Nominal Time from Start of Infusion” value (Cohort 4, 0.5 mg/kg IV, infusion 2 hours, 0.0 h, individual subjects) was 0.00 ng/mL and the “Plasma Concentration by Nominal Time from Start of Infusion” value (Cohort 4, 0.5 mg/kg IV, infusion 2 hours, 4.0 h, individual subjects) was 457 ng/mL and 502 ng/mL and 614 ng/mL. For the same compound, the “Plasma Concentration by Nominal Time from Start of Infusion” value (Cohort 4, 0.5 mg/kg IV, infusion 2 hours, 6.0 h, individual subjects) was 249 ng/mL and 448 ng/mL and 472 ng/mL, the “Plasma Concentration by Nominal Time from Start of Infusion” value (Cohort 4, 0.5 mg/kg IV, infusion 2 hours, 8.0 h, individual subjects) was 164 ng/mL and 311 ng/mL and 377 ng/mL and the AUCextrap [4] was 7.38%. It also gave a CL/F [4] of 0.977 mL/min/kg, a Tlast [4] of 46 h and a λz [4] of 0.0443 h⁻¹. It also gave an AUCextrap [5] of 8.22%, a CL/F [5] of 1.07 mL/min/kg and a Tlast [5] of 46 h. It also gave a λz [5] of 0.0457 h⁻¹, an AUCextrap [6] of 8.81% and a CL/F [6] of 0.892 mL/min/kg. The Tlast [6] was 50 h, the λz [6] was 0.0461 h⁻¹ and the Tlast (Cohort 4, 0.5 mg/kg IV, infusion 2 hours, individual subjects) was 38 h (2×) and 50 h (4×). For the same compound, the “Plasma Concentration by Nominal Time from Start of Infusion, Mean” value (Cohort 5, 1 mg/kg IV 4-hr infusion, 0.0 h, cohort mean) was 0.00 ng/mL, the AUCextrap (Cohort 5, 1 mg/kg IV infusion 4 hours, Geometric Mean) was 8.61% and the AUC0-24 [7] was 28800 ng·h/mL. For the same compound, the AUC(0-inf) [7] was 25700 ng·h/mL, the AUC(0-t) [7] was 34300 ng·h/mL and the AUCextrap [7] was 17.8%. For the same compound, the t1/2 [7] was 28.3 h, the AUCextrap (Cohort 5, 1 mg/kg IV infusion 4 hours, Mean) was 10.8% and the AUCextrap (Cohort 5, 1 mg/kg IV infusion 4 hours, Median) was 11.6%. For the same compound, the AUC0-24 [8] was 14000 ng·h/mL, the AUC(0-inf) [8] was 17400 ng·h/mL and the AUC(0-t) [8] was 15800 ng·h/mL. For the same compound, the AUCextrap [8] was 2.43%, the Cmax [8] was 2030 ng/mL and the t1/2 [8] was 9.59 h. For the same compound, the AUC(0-inf) (Cohort 5, 1 mg/kg IV infusion 4 hours, individual subject) was 17400 ng·h/mL and 19900 ng·h/mL and 25700 ng·h/mL, the “actual dose-level exposure AUC0-24 relative to that predicted from animal data” value [9] was 5-10 × and the “actual dose-level exposure Cmax relative to that predicted from animal data” value [9] was “about 4 ×”. For the same compound, the “dose proportionality of AUC0-t” value (dose range 0.05 to 0.5 mg/kg, slope not significantly different from 1) was “increased proportionally with dose increase”, the “intercept estimate, log AUC0-∞ versus log dose” value (dose range 0.05 to 1 mg/kg) was 6.04 and the “slope estimate, log AUC0-∞ versus log dose” value (dose range 0.05 to 1 mg/kg, 90% CI=0.78 to 1.03) was 0.91. For the same compound, the “increase of AUC0-t” value [10] was 4.2 fold, the “increase of mean AUC0-24” value [10] was 3.6 fold and the “increase of AUC0-t” value (over the […] increase in dose) was 2.2 fold. The “increase of mean AUC0-24” value (over the […] increase in dose) was 2.0 fold, the AUCextrap [11] was 8.36% and the Tlast [11] was 24 h. For the same compound, the λz [11] was 0.0946 h⁻¹, the AUC0-24 [12] was 1610 ng·h/mL and the AUC(0-inf) [12] was 1820 ng·h/mL. The AUC(0-t) [12] was 1720 ng·h/mL, the AUCextrap [12] was 12.1% and the CL/F [12] was 0.595 mL/min/kg. For the same compound, the Cmax [12] was 341 ng/mL, the Tlast [12] was 37 h and the t1/2 [12] was 8.59 h. For the same compound, the λz [12] was 0.105 h⁻¹, the AUCextrap [13] was 8.87% and the Tlast [13] was 25 h. For the same compound, the λz [13] was 0.095 h⁻¹, the AUCextrap [14] was 8.12% and the Tlast [14] was 25 h. The λz [14] was 0.0951 h⁻¹, the AUC0-24 [15] was 619 ng·h/mL and the AUC(0-t) [15] was 515 ng·h/mL. It also gave an AUCextrap [15] of 4.54%, a CL/F [15] of 0.457 mL/min/kg and a Cmax [15] of 170 ng/mL. The Tlast [15] was 13 h, the t1/2 [15] was 6.62 h and the λz [15] was 0.0807 h⁻¹. The AUC(0-inf) [16] was 1490 ng·h/mL and 1800 ng·h/mL and 1820 ng·h/mL, the CL/F [16] was 0.562 mL/min/kg and 0.463 mL/min/kg and 0.457 mL/min/kg and the Tlast [16] was 25 h (4×) and 13 h and 37 h.
